Experimental data: PMC11352099 (RSC Medicinal Chemistry, 2024)
Values joined by “and” are separate entries in the source; they are usually repeats but may differ in a detail not shown here. Equal entries are not always repeated. Where two headings read alike, the source gives them in different places.

Legend:
SARS-CoV-2 nsp14 MTase = SARS-CoV-2 nsp14 MTase (Severe acute respiratory syndrome coronavirus 2, UniProt P0DTD1); experiment: biochemical; type: biochemical; settings: for Hill slope: Table S1, dose-response curve, variable slope model
human RNMT = human RNMT (Homo sapiens, UniProt O43148); experiment: Off-target inhibition of human RNMT; type: biochemical; settings: 25 μM concentration of inhibitor
Text: Human cells rely on several MTases; therefore, it is necessary to assess the possible off-target effect. […]

[1] = system: SARS-CoV-2 strain hCoV-19/Czech Republic/NRL_6632_2/2020; experiment: microbe, parasite or virus in culture; type: cell-based; settings: Severe acute respiratory syndrome coronavirus 2; Calu-3 cell line; read-out: EC50 (antiviral effect)
[2] = for Plasma stability % of the parent compound after 120 min, Mouse: 10 μM
[3] = for Plasma stability % of the parent compound after 120 min, Human: 10 μM
[4] = microsomes, 0.75 h, 10 µM, pH 7.4
[5] = microsomes, 0.75 h, 10 µM, pH 7.4; remark: listed apart in the source
in vitro = settings: human; for efflux ratio at 2 h, 10 µM: Caco-2; for Papp A→B at 2 h, 10 µM / Papp B→A at 2 h, 10 µM: Caco-2, pH 7.4
Method: (§1) 3.5. Caco-2 permeability assay
(§2) Transepithelial bi-directional transport of compounds (10 µM, pH 7.4/7.4) was tested on 21-day differentiated Caco-2 monolayers. Briefly, the cells were seeded at a density of 67 ,500 cells per 96-well plate insert (Millicell®, Merck KGaA, Darmstadt, Germany). They were left to differentiate for 21 days with medium exchange every 2–3 days. Prior to the experiment, the medium from both apical and basolateral well was exchanged for HBSS buffer (containing 10 mM HEPES and 25 mM glucose) and left to equilibrate for 30 min. Compound permeability was assayed by replacing pure HBSS with HBSS containing 10 μM compounds and 220 μM Lucifer yellow (LY) solution in an apical insert (A to B transport) or in a basolateral well (B to A transport). The tre ated cells were then returned to the incubator for 2 h at 37 °C. After that, samples were collected from both apical inserts and basolateral wells and analyzed using LC -MS/MS (SCIEX Triple Quad™ 7500 QTRAP® Ready). LC separation was done on Synergi 4µm Fusion 50 × 2 mm column (Phenomenex) using a water/acetonitrile gradient with 0.1% formic acid starting from 2 to 98% for 4.5 min.
(§3) The apparent permeability coefficient (Papp) was calculated from t he following equation: Papp = (dQ / dt) / C0 * A, where dQ/dt is the rate of absorption of the drug across the cells, C0 is the donor compartment concentration at time zero, and A is the area of the monolayer. Efflux ratio was expressed as (Papp B -A) / (Papp A-B). Recovery (%) was determined as (total compound mass i n donor and receiver compartments at the end of the incubation / initial compound mass in the donor compartment) x 100. The data represent means ± SD of two independent experiments performed in triplicate. […]
(§4) were used as control compounds.

Caco-2 monolayers = experiment: in vitro; settings: Caco-2
Method: as §1, §2, §3, §4

[6] = Table 1 and text, N.I., no inhibition, read-out: IC50
[7] = Table 1 and text, N.I., no inhibition
[8] = Table S1, read-out: IC50 (inhibitory activity)

Chain of human RNMT (O43148 whole entry): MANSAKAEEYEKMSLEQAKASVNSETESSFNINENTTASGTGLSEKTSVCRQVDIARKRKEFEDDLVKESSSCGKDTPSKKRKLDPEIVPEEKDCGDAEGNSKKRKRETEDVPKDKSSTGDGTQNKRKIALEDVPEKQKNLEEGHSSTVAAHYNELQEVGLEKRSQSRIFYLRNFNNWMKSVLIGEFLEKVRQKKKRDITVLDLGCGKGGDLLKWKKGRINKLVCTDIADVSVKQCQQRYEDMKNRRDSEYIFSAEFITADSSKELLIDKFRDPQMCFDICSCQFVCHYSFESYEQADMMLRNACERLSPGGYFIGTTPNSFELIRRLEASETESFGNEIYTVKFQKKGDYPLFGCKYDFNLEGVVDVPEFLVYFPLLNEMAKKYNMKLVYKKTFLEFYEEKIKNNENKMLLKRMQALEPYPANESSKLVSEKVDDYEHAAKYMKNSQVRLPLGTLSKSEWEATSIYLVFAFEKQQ

COC(=O)c1ccc(NC(=O)[C@H]2O[C@@H](n3cnc4c(N)ncnc43)[C@H](O)[C@@H]2O)cc1 [12a]
IC50 (SARS-CoV-2 nsp14 MTase; [6]): > 25 µM

NC(=O)c1ccc(NC(=O)[C@H]2O[C@@H](n3cnc4c(N)ncnc43)[C@H](O)[C@@H]2O)cc1 [12b]
IC50 (SARS-CoV-2 nsp14 MTase; [7]): N.I.

COc1cccc(NC(=O)[C@H]2O[C@@H](n3cnc4c(N)ncnc43)[C@H](O)[C@@H]2O)c1 [12c]
IC50 (SARS-CoV-2 nsp14 MTase; [7]): N.I.

COc1ccc(NC(=O)[C@H]2O[C@@H](n3cnc4c(N)ncnc43)[C@H](O)[C@@H]2O)cc1O [12d]
IC50 (SARS-CoV-2 nsp14 MTase; [6]): > 25 µM

Cc1ccc(NC(=O)[C@H]2O[C@@H](n3cnc4c(N)ncnc43)[C@H](O)[C@@H]2O)cc1O [12e]
IC50 (SARS-CoV-2 nsp14 MTase; [7]): N.I.

COC(=O)c1cc(NC(=O)[C@H]2O[C@@H](n3cnc4c(N)ncnc43)[C@H](O)[C@@H]2O)ccc1F [12f]
IC50 (SARS-CoV-2 nsp14 MTase; [7]): N.I.

Nc1ncnc2c1ncn2[C@@H]1O[C@H](C(=O)Nc2ccc(-c3ccoc3)cc2)[C@@H](O)[C@H]1O [12g, (2S,3S,4R,5R)-5-(6-Amino-9H-purin-9-yl)-N-(4-(furan-3-yl)phenyl)-3,4-dihydroxytetrahydrofuran-2-carboxamide]
IC50 (SARS-CoV-2 nsp14 MTase; [7]): N.I.

Nc1ncnc2c1ncn2[C@@H]1O[C@H](C(=O)Nc2ccc(-c3ccsc3)cc2)[C@@H](O)[C@H]1O [12h]
IC50 (SARS-CoV-2 nsp14 MTase; [7]): N.I.

Nc1ncnc2c1ncn2[C@@H]1O[C@H](C(=O)Nc2ccc(-c3cn[nH]c3)cc2)[C@@H](O)[C@H]1O [12i]
IC50 (SARS-CoV-2 nsp14 MTase; [7]): N.I.

Cc1noc(C)c1-c1ccc(NC(=O)[C@H]2O[C@@H](n3cnc4c(N)ncnc43)[C@H](O)[C@@H]2O)cc1 [12j]
IC50 (SARS-CoV-2 nsp14 MTase; [7]): N.I.

Nc1ncnc2c1ncn2[C@@H]1O[C@H](C(=O)Nc2ccc3c(c2)OCCO3)[C@@H](O)[C@H]1O [12k]
IC50 (SARS-CoV-2 nsp14 MTase; [6]): 1.8 µM and 1.81 µM | Hill slope (SARS-CoV-2 nsp14 MTase): -1.01 | IC50 (SARS-CoV-2 nsp14 MTase; [8]): 1.81 µM

Cc1cc(=O)oc2cc(NC(=O)[C@H]3O[C@@H](n4cnc5c(N)ncnc54)[C@H](O)[C@@H]3O)ccc12 [12l]
inhibitory activity against RNMT (human RNMT): None of the tested compounds exhibited any inhibitory activity | EC50 [1]: > 50 µM | Plasma stability % of the parent compound after 120 min, Mouse [2]: 93 ± 2.7% | Plasma stability % of the parent compound after 120 min, Human [3]: 103 ± 3.3% | Microsomal stability % of the parent compound after 45 min, Mouse [4]: 95 ± 5.0% | Microsomal stability % of the parent compound after 45 min, Human [5]: 104 ± 4.1% | IC50 (SARS-CoV-2 nsp14 MTase; [6]): 0.36 ± 0.04 µM | Hill slope (SARS-CoV-2 nsp14 MTase): -1.39 | IC50 (SARS-CoV-2 nsp14 MTase; [8]): 0.364 µM | efflux ratio at 2 h, 10 µM (in vitro): 3.4 | recovery at 2 h, 10 µM (in vitro; Caco-2, Recovery (%) A-B): 85% | recovery at 2 h, 10 µM (in vitro; Caco-2, Recovery (%) B-A): 83% | Papp A→B at 2 h, 10 µM (in vitro): 3.1 ± 1.3 ×10⁻⁶ cm/s | Papp B→A at 2 h, 10 µM (in vitro): 10.7 ± 2.5 ×10⁻⁶ cm/s | Papp A-B (Caco-2 monolayers): 3.1 ± 1.3 cm/s x 10-6 | Papp B-A (Caco-2 monolayers): 10.7 ± 2.5 cm/s x 10-6

Nc1ncnc2c1ncn2[C@@H]1O[C@H](C(=O)Nc2ccc3c(C(F)(F)F)cc(=O)oc3c2)[C@@H](O)[C@H]1O [12m]
Plasma stability % of the parent compound after 120 min, Mouse [2]: 67 ± 3.5% | stability in mouse plasma (in words) ([2]; plasma): unstable | Plasma stability % of the parent compound after 120 min, Human [3]: 20 ± 1.4% | stability in human plasma (in words) ([3]; plasma): unstable | Microsomal stability % of the parent compound after 45 min, Mouse [4]: 93 ± 9.4% | Microsomal stability % of the parent compound after 45 min, Human [5]: 90 ± 9.1% | IC50 (SARS-CoV-2 nsp14 MTase; [6]): 1.47 ± 0.14 µM | Hill slope (SARS-CoV-2 nsp14 MTase): -1.01 | IC50 (SARS-CoV-2 nsp14 MTase; [8]): 1.47 µM | efflux ratio at 2 h, 10 µM (in vitro): 4.1 | recovery at 2 h, 10 µM (in vitro; Caco-2, Recovery (%) A-B): 96% | recovery at 2 h, 10 µM (in vitro; Caco-2, Recovery (%) B-A): 130% | Papp A→B at 2 h, 10 µM (in vitro): 8 ± 2.9 ×10⁻⁶ cm/s | Papp B→A at 2 h, 10 µM (in vitro): 32.9 ± 5.3 ×10⁻⁶ cm/s | Papp A-B (Caco-2 monolayers): 8.0 ± 2.9 cm/s x 10-6 | Papp B-A (Caco-2 monolayers): 32.9 ± 5.3 cm/s x 10-6

Cc1cc(=O)[nH]c2cc(NC(=O)[C@H]3O[C@@H](n4cnc5c(N)ncnc54)[C@H](O)[C@@H]3O)ccc12 [12n]
inhibitory activity against RNMT (human RNMT): None of the tested compounds exhibited any inhibitory activity | EC50 [1]: > 50 µM | Plasma stability % of the parent compound after 120 min, Mouse [2]: 78 ± 0.3% | Plasma stability % of the parent compound after 120 min, Human [3]: 97 ± 2.0% | Microsomal stability % of the parent compound after 45 min, Mouse [4]: 90 ± 2.9% | Microsomal stability % of the parent compound after 45 min, Human [5]: 95 ± 0.0% | IC50 (SARS-CoV-2 nsp14 MTase; [6]): 0.35 ± 0.04 µM | Hill slope (SARS-CoV-2 nsp14 MTase): -1.19 | efflux ratio at 2 h, 10 µM (in vitro): 0.5 | recovery at 2 h, 10 µM (in vitro; Caco-2, Recovery (%) A-B): 79% | recovery at 2 h, 10 µM (in vitro; Caco-2, Recovery (%) B-A): 87% | Papp A→B at 2 h, 10 µM (in vitro): 4.4 ± 1.8 ×10⁻⁶ cm/s | Papp B→A at 2 h, 10 µM (in vitro): 2.2 ± 0.4 ×10⁻⁶ cm/s | Papp A-B (Caco-2 monolayers): 4.4 ± 1.8 cm/s x 10-6 | Papp B-A (Caco-2 monolayers): 2.2 ± 0.4 cm/s x 10-6

Nc1ncnc2c1ncn2[C@@H]1O[C@H](C(=O)Nc2ccc3c(c2)NC(=O)CC3)[C@@H](O)[C@H]1O [12o]
IC50 (SARS-CoV-2 nsp14 MTase; [6]): 6.55 ± 1.44 µM | Hill slope (SARS-CoV-2 nsp14 MTase): -0.91 | IC50 (SARS-CoV-2 nsp14 MTase; [8]): 6.55 µM

Nc1ncnc2c1ncn2[C@@H]1O[C@H](C(=O)Nc2ccc3cccnc3c2)[C@@H](O)[C@H]1O [12p]
IC50 (SARS-CoV-2 nsp14 MTase; [6]): 4.81 ± 2.54 µM | Hill slope (SARS-CoV-2 nsp14 MTase): -1.45 | IC50 (SARS-CoV-2 nsp14 MTase; [8]): 4.81 µM

COC(=O)c1ccc(C(=O)NC[C@H]2O[C@@H](n3cnc4c(N)ncnc43)[C@H](O)[C@@H]2O)cc1 [21a]
inhibitory activity against nsp14 (in words) (SARS-CoV-2 nsp14 MTase): significant decrease or complete loss of the inhibitory activity | IC50 (SARS-CoV-2 nsp14 MTase; [7]): N.I.

Nc1ncnc2c1ncn2[C@@H]1O[C@H](CNC(=O)c2ccc3c(c2)OCCO3)[C@@H](O)[C@H]1O [21k]
inhibitory activity against nsp14 (in words) (SARS-CoV-2 nsp14 MTase): significant decrease or complete loss of the inhibitory activity | IC50 (SARS-CoV-2 nsp14 MTase; [7]): N.I.

Nc1ncnc2c1ncn2[C@@H]1O[C@H](CNS(=O)(=O)c2ccc3c(c2)OCCO3)[C@@H](O)[C@H]1O [22k]
inhibitory activity against nsp14 (in words) (SARS-CoV-2 nsp14 MTase): significant decrease or complete loss of the inhibitory activity | IC50 (SARS-CoV-2 nsp14 MTase; [6]): 15.3 ± 2.55 µM | Hill slope (SARS-CoV-2 nsp14 MTase): -1.55

C[C@H]1O[C@@H](O[C@H]2[C@@H](O)C[C@H](O[C@H]3[C@@H](O)C[C@H](O[C@H]4CC[C@@]5(C)[C@H](CC[C@@H]6[C@@H]5C[C@@H](O)[C@]5(C)[C@@H](C7=CC(=O)OC7)CC[C@]65O)C4)O[C@@H]3C)O[C@@H]2C)C[C@H](O)[C@@H]1O [Digoxin, reference compound]
recovery at 2 h, 10 µM (in vitro; Caco-2, Recovery (%) A-B, Table S2, A to B transport): 131% | recovery at 2 h, 10 µM (in vitro; Caco-2, Recovery (%) B-A, Table S2, B to A transport): 77%

Cc1cc(=O)oc2cc(SC[C@H]3O[C@@H](n4cnc5c(N)ncnc54)[C@H](O)[C@@H]3O)ccc12 [compound 24]
inhibitory activity against nsp14 (in words) (SARS-CoV-2 nsp14 MTase): significant decrease or complete loss of the inhibitory activity | IC50 (SARS-CoV-2 nsp14 MTase; [6]): 3.67 ± 0.4 µM | Hill slope (SARS-CoV-2 nsp14 MTase): -1.04 | IC50 (SARS-CoV-2 nsp14 MTase; [8]): 3.67 µM

Cc1cc(=O)oc2cc(S(=O)(=O)C[C@H]3O[C@@H](n4cnc5c(N)ncnc54)[C@H](O)[C@@H]3O)ccc12 [compound 25]
inhibitory activity against nsp14 (in words) (SARS-CoV-2 nsp14 MTase): significant decrease or complete loss of the inhibitory activity | IC50 (SARS-CoV-2 nsp14 MTase; [6]): > 25 µM
